Columns and labels:
RBL-1 cells = test: leukotriene B4 production in cultured RBL-1 cells (A23187 stimulated, enzyme immunoassay); format: cell-based
Experimental: RBL-1 cells (Dainippon Pharmaceutical Co.) were cultured in a Dulbecco's Modified Eagle's Medium containing fetal bovine serum in an amount of 10%. The cultured cells were adjusted to 5×10^6 cells/ml. […] After incubated at 37° C. for 5 min, this was immersed into ice and kept for 10 min. Subsequently, 2×10^-5 mol of A23187, Ca-ionophore, was added to the chilled cell suspension to make the final concentration of […], and the cell suspension was incubated again at 37° C. for 15 min. Further, the suspension was held in ice for 10 min. The suspension was subjected to centrifugation at 3000 rpm for 10 min and the cells were removed. Leukotriene B4 (LTB4) level in the supernatant was measured by enzyme immunoassay. […] A significant difference test against the control group was carried out using Bonferroni's test of a multiple comparison.

DNFB-sensitized mice [1] = test: survival rate in DNFB-sensitized mice (allergic dermatitis model); format: in vivo, BALB/c mouse; settings: 3, 10, 30 and 100 mg/kg/day oral; up to 6th day after final sensitization (FIGS. 4A and 4B)
Experimental: (§1) Therefore, the presence of such side effects was examined on the active component of the agent of the present invention by using a mouse allergic dermatitis model.
(§2) Hair was removed from the abdomen to the breast of a BALB/c mouse (male, 8 weeks of age) with hair clippers and a shaver. A 0.5% dinitro-fluorobenzene (DNFB) ethanol solution (100 μl head/day) was applied on the hair-removed part one day and two days after the removal of hair to establish sensitization. 2-(3-Cyano-4-isobutyloxyphenyl)-4-methyl-5-thiazolecarboxylic acid, the active component of the present invention, and allopurinol are each suspended in a 0.5% methylcellulose aqueous solution. Each suspension (3, 10, 30 and 100 mg/kg/10 ml/day) was orally administered to an animal at the same time of each DNFB sensitization. […]
(§3) The variations with time of the survival rate and the body weights of the mice administered with the agents were followed up to the 6th day after the final sensitization and recorded. […] The ear thicknesses were measured with a dial thickness gauge (Ozaki Seisakusho, G-1A) before the elicitation, and 24 hr and 48 hr after the elicitation.
(§4) The variations of the body weights and the ear thicknesses were expressed as the mean ± standard deviation for each group. […]

DNFB-sensitized mice [2] = test: ear thickness after elicitation of immune reaction in DNFB-sensitized mice; format: in vivo, BALB/c mouse
Experimental: as §1, §2, §3, §4

DNFB-sensitized mice [3] = test: body weight in DNFB-sensitized mice (allergic dermatitis model); format: in vivo, BALB/c mouse; settings: survived animals
Experimental: as §1
Hair was removed from the abdomen to the breast of a BALB/c mouse (male, 8 weeks of age) with hair clippers and a shaver. A 0.5% dinitro-fluorobenzene (DNFB) ethanol solution (100 μl head/day) was applied on the hair-removed part one day and two days after the removal of hair to establish sensitization. 2-(3-Cyano-4-isobutyloxyphenyl)-4-methyl-5-thiazolecarboxylic acid, the active component of the present invention, and allopurinol are each suspended in a 0.5% methylcellulose aqueous solution. Each suspension (3, 10, 30 and 100 mg/kg/10 ml/day) was orally administered to an animal at the same time of each DNFB sensitization. The number of animals is 8 for each of a 3- and a 10-mg/kg/10 ml/day group, and 10 for each of a 30- and a 100-mg/kg/10 ml/day group in each of the active component and the allopurinol. As the control group, 10 ml/kg of 0.5% methylcellulose aqueous solution, the solvent for the active component and allopurinol, was administered to each of 8 sensitized animals.
The variations with time of the survival rate and the body weights of the mice administered with the agents were followed up to the 6th day after the final sensitization and recorded. For survived sensitized animals, a 0.3% DNFB acetone-olive oil (4:1) mixed solution (10 μl on each of the obverse and the reverse side of an ear) was applied on one ear to elicit an immune reaction and an acetone-olive oil (4:1) mixed solution (10 μl on each of the obverse and the reverse side of an ear) was applied on the other ear on the sixth day after the final sensitization. The ear thicknesses were measured with a dial thickness gauge (Ozaki Seisakusho, G-1A) before the elicitation, and 24 hr and 48 hr after the elicitation.
as §4

[4] = clinical application; The Journal of Medicine 1984; The Annals of Pharmacotherapy 1993; cited from earlier work
[5] = test system: ischemia-reperfusion injury model of kidney; test: renal ischemia-reperfusion injury model in rats, serum BUN level; format: in vivo, SD rat; settings: 50 mg/kg oral 60 min prior to 60-min ischemia; 24-hour reperfusion; compared with control group (FIG. 2)
Experimental: (§5) An ischemia-reperfusion injury model of kidney for studying effect on the ischemia-reperfusion injury was prepared with a rat as shown below, and the effect of the administration of the active component of the agent of the present invention was studied by using the model animal.
(§6) The abdomen of an SD rat (male, 6 weeks of age) was opened under anesthesia with sodium pentobarbital, the separated left and right renal arteries were clamped with arterial clips to block the blood flow completely, and the kidneys were brought into an ischemic state. After 60-minute ischemia, the artery clamps were released, and blood flow was restarted to bring the kidneys to a reperfused state. After the suture of the opened abdomen, the animal was returned to a cage and allowed to have free access to food and water. […]
(§7) Serum was separated from the obtained blood sample by centrifugation. Blood urea nitrogen (BUN) level and serum creatinine (Cre) level, a parameter for kidney function injury, were determined on the serum using an automated analyzer (Hitachi 7070) by an urease-indophenol method and Jaffe method, respectively.
(§8) 2-(3-Cyano-4-isobutyloxyphenyl)-4-methyl-5-thiazolecarboxylic acid, the active component, was suspended in a 0.5% methylcellulose aqueous solution. […] The results were each expressed as the mean ± standard deviation. […]

rats = test: acute toxicity test, single oral administration in rats; format: in vivo, rat; settings: single oral administration up to 300 mg/kg
Experimental: Further, for the safety evaluation of the agent of the present invention, an acute toxicity test is carried out with rats in terms of 2-(3-cyano-4-isobutyloxyphenyl)-4-methyl-5-thiazolecarboxylic acid as the active component.

[6] = test system: ischemia-reperfusion injury model of kidney; test: renal ischemia-reperfusion injury model in rats, serum creatinine (Cre) level; format: in vivo, SD rat; settings: 50 mg/kg oral 60 min prior to 60-min ischemia; 24-hour reperfusion; mean ± standard deviation; control 3.6±0.4, sham 0.4±0.0; p<0.05 vs control
Experimental: as §5, §6, §7, §8

Row | SMILES | LTB4 production (RBL-1 cells; up to 1×10^-8 mol (final concentration of up to 10 μM) (FIG. 3)) | survival rate (DNFB-sensitized mice [1]) | increase of the ear thickness and allergy reaction (DNFB-sensitized mice [2]; 30 mg/kg oral, after elicitation, p<0.05 vs control (FIG. 6)) | body weight change (DNFB-sensitized mice [3]; 30 mg/kg oral, p<0.01 vs control (FIG. 5B)) | body weight change (DNFB-sensitized mice [3]; 100 mg/kg oral, p<0.05 vs control (FIG. 5B)) | side effects [4] | LTB4 production (RBL-1 cells; 1×10^-8 mol (final concentration of 10 μM), p<0.001 vs control (FIG. 3)) | serum BUN level [5] | increase of the ear thickness (DNFB-sensitized mice [2]; 3, 10, 30 and 100 mg/kg/day oral, 24 hr and 48 hr after elicitation (FIG. 6)) | body weight change (DNFB-sensitized mice [3]; 3, 10, 30 and 100 mg/kg/day oral, up to 6th day after final sensitization (FIG. 5A)) | death of rats (rats) | serum Cre level [6] [mg/dL]
1 | Oc1ncnc2[nH]ncc12 [allopurinol, reference compound] | had no effect on the production | survival rate decreased dose-dependently with time from a low dose level | stimulated the increase of the ear thicknesses, and the allergy reaction significantly | decreased the body weights of the animals significantly | decreased the body weights of the animals significantly | side effects including an allergy reaction during clinical application and occasionally the side effect is so severe that the patient is brought to death |  |  |  |  |  | 
2 | Cc1nc(-c2ccc(OCC(C)C)c(C#N)c2)sc1C(=O)O [2-(3-cyano-4-isobutyloxyphenyl)-4-methyl-5-thiazolecarboxylic acid] |  | all animals were survived, excluding one animal of the 100 mg/kg/day group |  |  |  |  | suppresses the production of LTB4 significantly | exhibited a tendency to suppress the increase of the serum BUN | none of the effect in terms of the increase of the ear thicknesses was observed | did not produce a significant change on the body weights of the animals | None of rats died | 2.3 ± 1.1

Reference: patent US5843969A, “Protecting agent for organ or tissue” (Teijin Limited, priority 1995, dated 1998)
